Tests used:
Experiment in all cases: relative viability (nuclei count vs DMSO), 5 days (fraction); higher = more cells survive
[1] = test system: NCI-H2087
Outline: (§1)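 The day after seeding in 1536-well plates, lung cancer cell lines were treated by pin tool with a single drug, or with a fixed anchor-drug dose together with five library-drug doses (not always all listed) in √10 steps. After 5 days, a combined fix-and-stain solution (final 0.05% Triton X-100, 1% formaldehyde, 1 ug/ml Hoechst) was added. Nuclei counted on 4× images gave relative viability as treated counts over vehicle counts, reported as the median of duplicate plates.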

[2] = test system: LU99A
Outline: as §1

[3] = test system: NCI-H1734
Outline: as §1

[4] = test system: RERF-LC-KJ
Outline: as §1

[5] = test system: NCI-H3122
Outline: as §1

[6] = test system: CAL-12T
Outline: as §1

[7] = test system: LOU-NH91
Outline: as §1

[8] = test system: ChaGo-K-1
Outline: as §1

[9] = test system: NCI-H2228
Outline: as §1

[10] = test system: NCI-H2405
Outline: as §1

[11] = test system: EPLC-272H
Outline: as §1

[12] = test system: NCI-H1793
Outline: as §1

[13] = test system: HCC-78
Outline: as §1

[14] = test system: LC-2-ad
Outline: as §1

[15] = test system: NCI-H1755
Outline: as §1

[16] = test system: NCI-H1944
Outline: as §1

[17] = test system: NCI-H460
Outline: as §1

[18] = test system: UMC-11
Outline: as §1

[19] = test system: HCC-366
Outline: as §1

[20] = test system: NCI-H2170
Outline: as §1

[21] = test system: PC-3 [JPC-3]
Outline: as §1

[22] = test system: NCI-H1395
Outline: as §1

[23] = test system: NCI-H1651
Outline: as §1

Work on `C[C@@H]1CN(CC(=O)Nc2ccc3c(c2)Cc2cccc(-c4cc(=O)cc(N5CCOCC5)o4)c2S3)C[C@H](C)O1` + CC(=O)Nc1cccc(-n2c(=O)n(C3CC3)c(=O)c3c(Nc4ccc(I)cc4F)n(C)c(=O)c(C)c32)c1 [Trametinib] (partner 0.02 µM) yielded a relative viability ([1]; first compound 0.04 µM) of 0.248, a relative viability ([1]; first compound 0.1265 µM) of 0.224 and a relative viability ([1]; first compound 0.4 µM) of 0.16. For the same compound, the relative viability ([1]; first compound 4 µM) was 0.184, the relative viability ([2]; first compound 0.04 µM) was 0.508 and the relative viability ([2]; first compound 0.1265 µM) was 0.534. It also gave a relative viability ([2]; first compound 0.4 µM) of 0.587, a relative viability ([2]; first compound 4 µM) of 0.59 and a relative viability ([3]; first compound 0.04 µM) of 0.698. The relative viability ([3]; first compound 0.1265 µM) was 0.756, the relative viability ([3]; first compound 0.4 µM) was 0.632 and the relative viability ([3]; first compound 4 µM) was 0.788. The relative viability ([4]; first compound 0.04 µM) was 0.874, the relative viability ([4]; first compound 0.1265 µM) was 0.796 and the relative viability ([4]; first compound 0.4 µM) was 0.757. It also gave a relative viability ([4]; first compound 4 µM) of 0.695, a relative viability ([5]; first compound 0.04 µM) of 0.273 and a relative viability ([5]; first compound 0.1265 µM) of 0.263. For the same compound, the relative viability ([5]; first compound 0.4 µM) was 0.212, the relative viability ([5]; first compound 4 µM) was 0.189 and the relative viability ([6]; first compound 0.04 µM) was 0.309. For the same compound, the relative viability ([6]; first compound 0.1265 µM) was 0.306, the relative viability ([6]; first compound 0.4 µM) was 0.304 and the relative viability ([6]; first compound 4 µM) was 0.205. For the same compound, the relative viability ([7]; first compound 0.04 µM) was 0.812, the relative viability ([7]; first compound 0.1265 µM) was 0.788 and the relative viability ([7]; first compound 0.4 µM) was 0.717. For the same compound, the relative viability ([7]; first compound 4 µM) was 0.715, the relative viability ([8]; first compound 0.04 µM) was 0.868 and the relative viability ([8]; first compound 0.1265 µM) was 0.859. It also gave a relative viability ([8]; first compound 0.4 µM) of 0.879, a relative viability ([8]; first compound 4 µM) of 0.871 and a relative viability ([9]; first compound 0.04 µM) of 0.575. The relative viability ([9]; first compound 0.1265 µM) was 0.547, the relative viability ([9]; first compound 0.4 µM) was 0.536 and the relative viability ([9]; first compound 4 µM) was 0.421. For the same compound, the relative viability ([10]; first compound 0.04 µM) was 0.7, the relative viability ([10]; first compound 0.1265 µM) was 0.651 and the relative viability ([10]; first compound 0.4 µM) was 0.59. The relative viability ([10]; first compound 4 µM) was 0.66, the relative viability ([11]; first compound 0.04 µM) was 0.281 and the relative viability ([11]; first compound 0.1265 µM) was 0.289. The relative viability ([11]; first compound 0.4 µM) was 0.281, the relative viability ([11]; first compound 4 µM) was 0.263 and the relative viability ([12]; first compound 0.04 µM) was 0.349. For the same compound, the relative viability ([12]; first compound 0.1265 µM) was 0.415, the relative viability ([12]; first compound 0.4 µM) was 0.381 and the relative viability ([12]; first compound 4 µM) was 0.34. It also gave a relative viability ([13]; first compound 0.04 µM) of 0.713, a relative viability ([13]; first compound 0.1265 µM) of 0.751 and a relative viability ([13]; first compound 0.4 µM) of 0.859. For the same compound, the relative viability ([13]; first compound 4 µM) was 0.711, the relative viability ([14]; first compound 0.04 µM) was 0.897 and the relative viability ([14]; first compound 0.1265 µM) was 0.867. For the same compound, the relative viability ([14]; first compound 0.4 µM) was 0.892, the relative viability ([14]; first compound 4 µM) was 0.854 and the relative viability ([15]; first compound 0.04 µM) was 0.779. It also gave a relative viability ([15]; first compound 0.1265 µM) of 0.737, a relative viability ([15]; first compound 0.4 µM) of 0.716 and a relative viability ([15]; first compound 4 µM) of 0.663. The relative viability ([16]; first compound 0.1265 µM) was 0.412, the relative viability ([16]; first compound 0.4 µM) was 0.4 and the relative viability ([16]; first compound 4 µM) was 0.425. The relative viability ([17]; first compound 0.04 µM) was 0.155, the relative viability ([17]; first compound 0.1265 µM) was 0.131 and the relative viability ([17]; first compound 0.4 µM) was 0.13. The relative viability ([17]; first compound 4 µM) was 0.0347, the relative viability ([18]; first compound 0.04 µM) was 0.732 and the relative viability ([18]; first compound 0.1265 µM) was 0.757. It also gave a relative viability ([18]; first compound 0.4 µM) of 0.868, a relative viability ([18]; first compound 4 µM) of 0.65 and a relative viability ([19]; first compound 0.04 µM) of 0.43. For the same compound, the relative viability ([19]; first compound 0.1265 µM) was 0.3, the relative viability ([19]; first compound 0.4 µM) was 0.244 and the relative viability ([19]; first compound 4 µM) was 0.181. It also gave a relative viability ([20]; first compound 0.04 µM) of 1.04, a relative viability ([20]; first compound 0.1265 µM) of 0.931 and a relative viability ([20]; first compound 0.4 µM) of 0.877. For the same compound, the relative viability ([20]; first compound 4 µM) was 0.847, the relative viability ([21]; first compound 0.04 µM) was 0.808 and the relative viability ([21]; first compound 0.1265 µM) was 0.665. For the same compound, the relative viability ([21]; first compound 0.4 µM) was 0.666, the relative viability ([21]; first compound 4 µM) was 0.634 and the relative viability ([22]; first compound 0.1265 µM) was 1.11. It also gave a relative viability ([22]; first compound 0.4 µM) of 0.824, a relative viability ([22]; first compound 4 µM) of 0.97 and a relative viability ([23]; first compound 0.04 µM) of 0.874. It also gave a relative viability ([23]; first compound 0.1265 µM) of 0.894, a relative viability ([23]; first compound 0.4 µM) of 0.83 and a relative viability ([23]; first compound 4 µM) of 0.629.
